Results as given in patent US10550130B2, “Benzo-thiazolo-imidazole compounds and uses thereof” (KING SAUD UNIVERSITY, priority 2015, dated 2020).

Tests used:
MDA-MB-468 = assay: Cell proliferation by 3H-thymidine uptake assay; type: cell-based; conditions: Homo sapiens, 72 h, read-out: IC50, growth inhibition (3H-thymidine uptake)
Experimental: (§1) In vitro antitumor activity of the compound was assessed by ^3H-thymidine uptake. The cells were treated and they were about 60% confluent. Cells were seeded at 4×10^3 cells per well in a 96 well plate in DMEM containing 10% FBS for 24 h followed by treatment with control media (0.1% DMSO) or media containing different concentration of the compound incubated for 72 h at 37° C. in 5% CO2. Cells were labelled by addition of ^3H-thymidine (Amersham, Chiltern Hills, London, UK) at 1 μCi/well for 18 h before harvesting. ^3H-thymidine uptake was measured using a 1450 Micro Beta PLUS liquid scintillation counter (Wallac, Waltham, Mass., USA).
(§2) In another experiment, the in vitro antitumor activity of the compound was assessed by a 3H-thymidine uptake experiment. To this end, cells of the tumor cell lines MCF-7, SKBR3 and MDA-MB-468 were seeded at 4×10^3 cells per well in a 96 well plate in DMEM containing 10% FBS for 24 h followed by treatment with control media (0.1% DMSO) or media containing different concentration of the compound (5 μM, 10 μM, 20 μM, 40 μM or 80 μM final concentration of KSA-101696) and incubated for 72 h at 37° C. in 5% CO2. At about 60% confluency, cells were labelled by addition of 3H-thymidine (Amersham, Chiltern Hills, London, UK) at 1 μCi/well for 18 h before harvesting. 3H-thymidine uptake was measured using a 1450 Micro Beta PLUS liquid scintillation counter (Wallac, Waltham, Mass., USA).

SKBR3 = assay: Cell proliferation by 3H-thymidine uptake assay; type: cell-based; conditions: Homo sapiens, SK-BR-3, 72 h, read-out: IC50, growth inhibition (3H-thymidine uptake)
Experimental: as §1, §2

MDA-MB-468 tumors = assay: Antitumor activity in mice; type: in vivo, Nude mice
Experimental: Nude mice (Jackson Laboratories, Bar Harbor, Me., USA) were injected with 4×10^6 cells of MDA-MB-468 in the mammary pad and tumor size was measured weekly using a caliper. When the tumor reached approximately 100 mm^3 diameter the mice were divided into a control group and a group treated with KSA-101696 200 mg/kg via intraperitoneal injection (three cycles every four days). Apparent toxicity as determined by body weight loss is recorded by measuring total body weight. Breeding, care and sacrifice of the animals were carried out in accordance with the protocols approved by the Animal Care and Use Committee of the King Faisal Specialist Hospital and Research Centre.
Because of the observed selective cytotoxic effect of compound KSA-101696 against cancer cells and the tolerance of normal cells and normal stem cells in vitro, a high dose of compound KSA-101696 (200 mg/kg) was used on mice.

HT-29 colon cancer cells = assay: CD133 expression by flow cytometry; type: cell-based; conditions: 10 μM, 48 h
Experimental: In a further experiment, HT-29 colon cancer cells were cultured in 6 well plates and treated by KSA-101696 (10 μM) or vehicle for 48 h. Then, cells were collected and stained with a CD133 antibody and analyzed by flow cytometry.

[1] = system: normal cells MCF-10 A, HSFN1 (human foreskin cells) and BM4 (bone marrow derived mesenchymal stem cells); assay: Annexin V binding by flow cytometry (apoptosis) in normal cells; type: cell-based; conditions: 20 μM, 48 h
Experimental: It is known that loss of phospholipid asymmetry of the plasma membrane is an early event of apoptosis. The annexin V binds to negatively charged phospholipids, like phosphatidylserine. During apoptosis, the cells react to annexin V once chromatin condenses but before the plasma membrane loses its ability to exclude propidium iodide (PI).
Annexin-V staining was performed by using Vybrant Apoptosis Assay Kit #2 (Molecular Probes) following the manufacturer's recommendations. Annexin-V stained cells were analyzed by flow cytometry, measuring the fluorescence emission between 515 nm to 545 nm.
To evaluate the selective-apoptotic effect of the compound in cancer cells but not normal cells, the cancer cell lines SKBR3, MDA-MB-468, and normal cells MCF-10 A, HSFN1 (human foreskin cells) and BM4 (bone marrow derived mesenchymal stem cells) were used. […] Upon treatment of cells with 20 μM for 48 h, cells were stained with Annexin-V and PI and binding of Annexin-V and PI to the cells was determined by flow cytometry.

SP cells of MCF-7 = assay: Mammosphere formation assay; type: cell-based
Experimental: (§3) Cell were harvested and counted by using trypan blue to exclude the dead cells. Cells cultured in suspension (1000 cells/100 μL) in serum-free mammary epithelium basal medium, supplemented with B27 supplement 1:50; (GIBCO), 20 ng/mL EGF (epidermal growth factor; Preprotech), 5 μg/mL insulin (Sigma), 1% Antibiotic-Antimycotic (GIBCO) and 0.5 μg/ml hydrocortisone (Sigma), as described previously (Dontu et al.). Mammospheres were allowed to grow for 7 days, then treated for 72 h by either control media (0.1% DMSO) or media containing different concentrations of the compound. Mammospheres were counted on a Leitz Labovert inverted Microscope. Mammosphere size was measured and a picture was taken on a Evos transmitted light microscope.
(§4) It is known that one of the properties of stem/progenitor cells is their ability to survive under anchorage-independent conditions and generate mammospheres, which are composed of a small number of stem cells. Given that CSCs generally make up for a small minority of the cells within cancer cell populations, the dye DyeCycle Violet was used to isolate SP cells (side population cells; the side population is enriched for stem/progenitor cells), through a BD FACSAria™ cell sorter. Subsequently, the isolated SP cells were used in a Mammosphere Formation Assay. SP cells of MCF-7 and BT-474 formed more mammospheres than non-SP cells (see FIG. 4A).
(§5) Treatment of 7 days old mammospheres of both cell lines with 5 μM of KSA-101696 decreased the number of mammospheres formed by 50% compared to DMSO treatment (FIG. 4A).

SP cells of BT-474 = assay: Mammosphere formation assay; type: cell-based; conditions: 5 μM, 7 days old mammospheres
Experimental: as §3, §4, §5

## COc1ccc(-c2csc3nc4ccccc4n23)cc1 [KSA-101696, 3-(4-methoxyphenyl)benzo[4,5]imidazo[2,1-b]thiazole]
MDA-MB-468
  IC50: ~2.5 µM
SKBR3
  IC50: 7.5 µM
MDA-MB-468 tumors; 200 mg/kg intraperitoneal, three doses, mice bearing MDA-MB-468 tumors
  reduction (shrinking) of tumor volume: 70%
MDA-MB-468 tumors; Mus musculus, MDA-MB-468, ip, intraperitoneal, read-out: ED50 (dose that shrinks the tumor volume by 50% at the end of treatment)
  ED50: 50 mg/kg
HT-29 colon cancer cells
  expression of colon cancer stem cell marker CD133: inhibition in the expression of the colon cancer stem cell marker CD133
[1]
  apoptosis (Annexin-V and PI) in normal cells: little apoptotic effect
SP cells of MCF-7; MCF-7, 5 μM, 7 days old mammospheres
  decrease of number of mammospheres formed compared to DMSO: 50%
SP cells of MCF-7; cell line not specified (FIG. 4B)
  size of treated mammospheres: reduction in the size
SP cells of BT-474
  decrease of number of mammospheres formed compared to DMSO: 50%
